The record followed here is patent US9855265B2, “Methods for treating cancer with TrkA receptor tyrosine kinase antagonists” (VM Oncology LLC, priority 2014, dated 2018).

Series [1] has as its system CCI rats, mechanical allodynia. The conditions noted are these: single oral dose.
Method: Chronic Constriction Injury (CCI) Model of Neuropathic Pain in Rats. […] Chronic constriction injury of the sciatic nerve was produced by tying four loose ligatures around the left sciatic nerve according to the method of Bennett and Xie. […] Calibrated von Frey filaments were used to determine the lowest mechanical (tactile) threshold required to evoke a brisk paw withdrawal reflex in the rat hindpaws. Rats were allowed to acclimatize in wire mesh cages for 15-20 min prior to von Frey testing. Assessment of paw withdrawal thresholds (PWTs) using von Frey filaments was undertaken prior to CCI-surgery (pre-surgery baseline on day 0). Before the drug dosing on day 14, the pre-dose baseline was recorded for each rat. […] Drug-naïve CCI-rats (n=4-6 per group) were used. The oral vehicle was 0.5% CMC-Na/0.1% Tween 80 in distilled water. The positive control gabapentin was dissolved in the vehicle and orally given at 100 mg/kg (by oral gavage). Test compound was suspended in the vehicle and orally given at 50 mg/kg and 100 mg/kg.
Series [2] relates to PANC-1 subcutaneous human pancreatic cancer xenografts. Description: PANC-1 Subcutaneous Human Pancreatic Cancer Xenograft Mouse Model.
Method: Temperature: 22±3° C. Humidity: 50±20%. Light cycle: 12 hours light and 12 hours dark. Cages: Polycarbonate cages of 300 mm×180 mm×150 mm embedded with the soft wood material were used. The bedding was changed twice a week. Diet: Animals had free access to a certified commercial laboratory diet. Concentrations of contaminants in the diet are routinely analyzed by the manufacturers to ensure the contaminants are below their allowable maximum and thus would not affect the tumor growth.
Water: Animals had free access to sterile drinking water. Cage identification: The identification labels for each cage contained the following information: number of animals, sex, strain, date received, treatment, group number and the starting date of the treatment. Briefly, PANC-1 cell line was originally purchased from the ATCC (CRL-1469) and the PANC-1 primary cell line was derived from the PANC-1 subcutaneously xenograft tumors. The PANC-1 primary cells were maintained in vitro as monolayer culture in DMEM medium supplemented with 10% heat inactivated fetal bovine serum, 100 U/ml penicillin and 100 μg/ml streptomycin and L-glutamine (2 mM) at 37° C. in an atmosphere of 5% CO2 air. The cells growing in exponential phase were harvested and counted for tumor inoculation.
Tumor Cell Inoculation and Randomization. Each animal was inoculated subcutaneously on the right flank with the PANC-1 primary tumor cells (5×10^6/animal) in 0.1 mL of PBS. Tumor development was allowed undisrupted until mean tumor volume reached approximately 85 mm^3. Animals were then randomized into 6 groups, with each group consisting of 8 animals. The test articles were administered to the tumor-bearing animals according to predetermined regimens. […] At the time of routine monitoring, the animals were checked for any effects of tumor growth on normal behavior such as mobility, food and water consumption (by looking only), body weight (BW) gain/loss (BW was measured twice weekly), eye/hair matting and any other abnormal effect. Death and observed clinical signs were recorded on the basis of the numbers of animals within each subset.
Tumor Measurement and the Endpoints: The major endpoint was to evaluate if the tumor growth could be inhibited. Tumor measurement was conducted twice weekly with a caliper and the tumor volume (mm3) is estimated using the formula: TV=a×b^2/2, where a and b are long and short diameters of a tumor, respectively. The tumor sizes were then used for T/C value and TGI (tumor growth inhibition), which are indicators of anti-tumor effectiveness. The T/C value (in percent) is an indication of antitumor effect. T and C are the mean volumes of the treated and control groups, respectively, on a given day. BW change, expressed as %, is calculated using the following formula: BW change (%)=(BW_DayX/BW_Day0)×100, where BW_DayX is BW on a given day, and BW_Day0 was BW on Day 0 (tumor inoculation).
Tumor Sample Collection: Two tumor samples from Group 1, 2 and 3, respectively; six tumor samples from Group 4; five tumor samples from Group 5 and 6, respectively, were snap frozen in liquid nitrogen and kept at −80° C. Total 22 tumor samples were collected.
Statistical Analyses: A one-way ANOVA was performed to compare tumor volumes among groups. All data were analyzed using the SPSS 17.0 software; p<0.05 was considered statistically significant.
Series [3] concerns carrageenan-induced pain in rats. Put plainly: Carrageenan Pain Model. Conditions: carrageenan rat model, 30 mg/kg, p.o. It is filed as in vivo, Sprague-Dawley rats. The method, then:
Carrageenan Pain Model The carrageenan model is a fast, reliable model used to assess the ability of analgesics to block inflammatory pain. The analgesic effects of test article combinations on pain generation are assayed using the carrageenan-induced pain model in rats. Adult male Sprague-Dawley rats are administered study drugs orally (vehicle, compounds of present disclosure) once daily for 2 days (day −2 and day −1) and 30 minutes prior to the carrageenan injection on day 0 (time=0). For the carrageenan injection, animals are lightly anesthetized and 0.1 ml of 2% carrageenan is injected into the plantar surface of the right hind paw. The positive control indomethacin (30 mg/kg, p.o.) is administered orally immediately before the carrageenan injection. Paw volumes (right and left) are measured using a Plethysmometer before drug administration on day −2 and serve as a baseline measurement. The paw volumes are measured again two hours post carrageenan injection. The degree of mechanical allodynia is measured by a blinded observer using Von Frey filaments applied to the plantar surface of the hind paws in an increasing numerical order. Each filament increases the force applied on the paw. The filaments are applied until animal paw withdrawal is achieved. […] Results are expressed as mean change from baseline across five timepoints post carrageenan injection.

The structures appear in SMILES notation.

As to `NCC1(CC(=O)O)CCCCC1` [gabapentin, reference compound], the “side effects observed in dosed CCI-rats” value in series [1] was “drowsiness or motor incoordination”.

On to `Nc1ccn([C@@H]2O[C@H](CO)[C@@H](O)C2(F)F)c(=O)n1` [Gemcitabine, gemcitabine], for which the “TGI (%, D18)” value in series [2] (gemcitabine 10 mg/kg (alone or with Compound-12, see label)) is 3%; in series [2] (gemcitabine 20 mg/kg (alone or with Compound-12, see label)), 48%. The “Tumor volume (Mean ± SEM)” value is given as 83 ± 4 mm^3 in series [2] (Day 7, gemcitabine 10 mg/kg (alone or with Compound-12, see label)); 83 ± 3 mm^3 in series [2] (Day 7, gemcitabine 20 mg/kg (alone or with Compound-12, see label)); 142 ± 12 mm^3 in series [2] (Day 11, gemcitabine 10 mg/kg (alone or with Compound-12, see label)); 109 ± 8 mm^3 in series [2] (Day 11, gemcitabine 20 mg/kg (alone or with Compound-12, see label)); 138 ± 9 mm^3 in series [2] (Day 14, gemcitabine 20 mg/kg (alone or with Compound-12, see label)); 346 ± 21 mm^3 in series [2] (Day 18, gemcitabine 10 mg/kg (alone or with Compound-12, see label)). For the same molecule, the “Tumor volume (Mean ± SEM)” value in series [2] (Day 19, gemcitabine 10 mg/kg (alone or with Compound-12, see label)) stood at 374 ± 19 mm^3; in series [2] (Day 19, gemcitabine 20 mg/kg (alone or with Compound-12, see label)), 216 ± 18 mm^3.

Regarding `COc1ccc2c(c1)c(CC(=O)O)c(C)n2C(=O)c1ccc(Cl)cc1` [indomethacin, reference compound], the analgesic effect result in series [3] is “about 100%”.
